One may read the efflux ratio as a quotient of directional permeabilities that is used to spot active efflux. By Papp A→B is commonly meant the apparent permeability from the apical to the basolateral side of a cell layer. The low end stands for poor permeation, the high end for ready permeation. A word on the Papp B→A: it is how fast a substance crosses the layer from the basolateral side. As a reminder, the IC50 is the point on the concentration scale where inhibition reaches its midpoint.

This is an account of results in patent US11161845B2, “Pyrrolopyridine-aniline compounds for treatment of dermal disorders” (Nflection Therapeutics, Inc., priority 2017, dated 2021).

One data set deals with P-gp (human MDR1). As to the kind of experiment: in vitro. Conditions: dog; for Papp A→B at 1 h, 5 μM / Papp B→A at 1 h, 5 μM: MDCK-MDR1, Papp. Here is the method:
(§1) MDCK-MDR1 is a stable-transfected cell line originating from MDCK cells, with over-expression of human MDR1 gene. The cell line is widely used for the identification and characterization of P-gp substrates and inhibitors.
(§2) MDCK-MDR1 cells were plated into 96-well Millipore Millicell-96 plates at 7,500 cells/75 μL/well and incubated for three days at 37° C. with 5% CO2. Cells were washed with Hank's Balanced Salt Solution (HBSS) with 5 mM HEPES for 30 minutes before starting the experiment. Test compound solutions were prepared by diluting DMSO stock into HBSS buffer, resulting in a final DMSO concentration of 0.1%. Prior to the experiment, cell monolayer integrity was verified by […] electrical resistance (TEER). Transport experiment was initiated by adding test compounds to the apical (75 μL) or basal (250 μL) side. Transport plates were incubated at 37° C. in a humidified incubator with 5% CO2. Samples were taken from the donor and acceptor compartments after one hour and analyzed by liquid chromatography with tandem mass spectrometry (LC/MS/MS).
(§3) Digoxin was used as reference control.
(§4) Apparent permeability (Papp) values were calculated using the following equation: Papp=(dQ/dt)/A/Co; where dQ/dt is the initial rate of amount of test compound transported across cell monolayer, A is the surface area of the filter membrane, and Co is the initial concentration of the test compound, calculated for each direction using a 4-point calibration curve by LC/MS/MS.
(§5) Net flux ratio between the two directional transports was calculated by the following equation: Ratio=Papp, B-A/Papp, A-B; where Papp, B-A and Papp, A-B represent the apparent permeability of test compound from the basal-to-apical and apical-to-basal side of the cellular monolayer, respectively.
(§6) Recovery was calculated based on the compound concentration at the end of the experiment, compared to that at the beginning of the experiment, adjusted for volumes.
(§7) A net flux ratio greater than two was considered a positive result for substrate determination. […] If the addition of a known P-gp inhibitor to the experiment reduces the net flux ratio by a significant amount (more than 50% reduction or reduces the ratio to close to unity), it is likely that the compound tested is a P-gp substrate.

For the next data set, the system named is MDCK-MDR1 cells. As to the kind of experiment: in vitro. Conditions: dog, MDCK-MDR1, 1 h, 5 μM. Here is the method:
as §1, §2, §3, §4, §5, §6, §7

The next data set concerns the target T1, hERG channel protein (Homo sapiens, UniProt Q12809).
T1 construct: purchased ThermoFisher PV5365
The experiment in a line: hERG screening assay (Predictor hERG FP). It is filed as binding. Conditions: fluorescence polarization tracer displacement. Here is the method:
hERG screening was conducted using a procedure similar to the procedure described by Piper et al. (Piper, D. R. et al., Assay Drug Dev. Technol. 2008, 6(2):213-223). The Predictor hERG FP assay (available from ThermoFisher, cat. no. PV5365) is a homogenous, fluorescence polarization biochemical-based format utilizing a membrane fraction containing hERG channel protein (Predictor hERG Membrane) and a high affinity, red-fluorescent hERG channel ligand (Predictor hERG Tracer Red). When the Predictor hERG Tracer ligand is bound to the hERG channel it produces high fluorescence polarization values. Compounds that bind to the hERG channel protein (competitors) displace the Predictor hERG Tracer Red resulting in decreased fluorescence polarization values.
Test compounds were solubilized in DMSO at 100× (or greater) of the desired starting concentration. Screening was conducted with a final concentration of 1% DMSO. For 10-point titrations, 3-fold serial dilutions were performed from the starting concentrations. The assay buffer used was 25 mM HEPES (pH 7.5), 15 mM KCl, 1 mM MgCl2, and 0.05% Pluronic F-127 (available from Sigma-Aldrich).
Predictor hERG membranes were stored as a 2× stock at −80° C. Each membrane lot was titrated to identify the concentration of membranes required to obtain ˜70% bound tracer. Before setting up the assay the membranes were thawed in a 37° C. water bath and stored at room temperature. To avoid light scatter caused by large membrane particulates the membranes were sonicated until a homogeneous solution free of particulates is obtained. […]
384 well untreated low-volume polystyrene microplates (Corning Cat. #4511) were used for the assay. […] The assay plate was read on a fluorescence plate reader (Tecan Safire^2) and the data was analyzed. […]
Assay blank control wells consisted of Predictor hERG Membranes and Assay Buffer. The blank wells were used for background subtraction of raw parallel and perpendicular fluorescence values prior to the calculation of polarization values. […]

Some results are limits rather than exact numbers.

T1 sequence (Q12809 whole entry): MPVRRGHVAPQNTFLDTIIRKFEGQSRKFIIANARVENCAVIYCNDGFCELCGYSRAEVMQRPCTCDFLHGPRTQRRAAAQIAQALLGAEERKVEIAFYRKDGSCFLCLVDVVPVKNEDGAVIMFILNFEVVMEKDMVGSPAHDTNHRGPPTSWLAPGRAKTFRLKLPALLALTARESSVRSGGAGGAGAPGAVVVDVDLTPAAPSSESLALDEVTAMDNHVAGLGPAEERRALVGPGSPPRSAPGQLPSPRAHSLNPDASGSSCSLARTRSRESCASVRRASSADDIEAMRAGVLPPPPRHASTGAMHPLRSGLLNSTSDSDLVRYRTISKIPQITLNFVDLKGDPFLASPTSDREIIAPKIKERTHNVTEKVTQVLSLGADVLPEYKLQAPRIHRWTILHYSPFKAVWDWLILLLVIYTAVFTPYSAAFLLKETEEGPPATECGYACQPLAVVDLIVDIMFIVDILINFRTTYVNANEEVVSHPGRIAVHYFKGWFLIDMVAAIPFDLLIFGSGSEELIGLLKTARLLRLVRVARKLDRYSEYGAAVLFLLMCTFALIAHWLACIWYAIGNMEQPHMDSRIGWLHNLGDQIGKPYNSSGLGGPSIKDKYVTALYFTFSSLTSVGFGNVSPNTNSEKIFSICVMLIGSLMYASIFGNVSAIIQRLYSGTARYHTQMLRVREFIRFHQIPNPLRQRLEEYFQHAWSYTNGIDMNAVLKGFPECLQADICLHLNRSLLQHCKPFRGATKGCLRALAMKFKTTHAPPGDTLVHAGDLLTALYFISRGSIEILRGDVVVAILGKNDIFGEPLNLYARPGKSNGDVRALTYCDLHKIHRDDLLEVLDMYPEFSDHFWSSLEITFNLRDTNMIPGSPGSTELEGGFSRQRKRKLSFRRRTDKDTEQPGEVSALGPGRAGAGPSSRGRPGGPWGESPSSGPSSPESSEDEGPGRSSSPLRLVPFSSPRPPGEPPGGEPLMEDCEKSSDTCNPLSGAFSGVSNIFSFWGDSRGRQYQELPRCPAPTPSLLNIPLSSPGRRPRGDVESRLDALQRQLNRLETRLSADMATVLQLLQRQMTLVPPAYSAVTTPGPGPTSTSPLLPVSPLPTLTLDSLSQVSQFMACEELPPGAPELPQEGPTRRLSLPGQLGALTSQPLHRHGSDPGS

Take `Cn1c(Nc2ccc(I)cc2F)c(C(=O)NOCCO)c2cccnc21` [Example 2, 2-((2-Fluoro-4-iodophenyl)amino)—N-(2-hydroxyethoxy)-1-methyl-1H-pyrrolo[2,3-b]pyridine-3-carboxamide]: in the data set with P-gp (human MDR1) (MDCK-MDR1), the efflux ratio at 1 h, 5 μM turned out to be 0.9. Moreover, the Papp A→B at 1 h, 5 μM was 49.1 ×10⁻⁶ cm/s in the data set with P-gp (human MDR1) (A-B Mean) and 50.5 ×10⁻⁶ cm/s with P-gp (human MDR1) (A-B Value). Further, the Papp B→A at 1 h, 5 μM came out at 41.8 ×10⁻⁶ cm/s in the data set on P-gp (human MDR1) (B-A Mean) and 42.3 ×10⁻⁶ cm/s in the data set on P-gp (human MDR1) (B-A Value). In addition, the “Papp, A-B Value” in the data set on MDCK-MDR1 cells amounted to 47.8 ×10⁻⁶ cm/s. In addition, the “Papp, B-A Value” with MDCK-MDR1 cells came to 41.3 ×10⁻⁶ cm/s. Moreover, the “Recover Rate” value with MDCK-MDR1 cells was determined as 92%. Moreover, the IC50 on hERG channel protein is greater than 30 µM.
